Measured values: the supplement of paper PMC10307832

Columns and labels:
Assay in all cases: relative viability (nuclei count vs DMSO), 5 days (fraction); higher = more cells survive
Crenolanib + Alpelisib = compound: CC1(COc2ccc3c(c2)ncn3-c2ccc3cccc(N4CCC(N)CC4)c3n2)COC1 [Crenolanib] + Cc1nc(NC(=O)N2CCC[C@H]2C(N)=O)sc1-c1ccnc(C(C)(C)C(F)(F)F)c1 [Alpelisib] (partner 2 µM)
Outline: (§1)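 For relative viability, nuclei counts in treated wells were divided by those in vehicle wells. Lung cancer cell lines had been pin-tool dosed in 1536-well plates the day after seeding and cultured for 5 days, then fixed and stained in one step (final 0.05% Triton X-100, 1% formaldehyde, 1 ug/ml Hoechst) and imaged at 4×. Doses were one drug alone or a fixed anchor-drug dose plus five library-drug doses (not always all listed) in √10 steps, and values are duplicate-plate medians.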

Tivantinib + Palbociclib = compound: O=C1NC(=O)[C@@H](c2cn3c4c(cccc24)CCC3)[C@@H]1c1c[nH]c2ccccc12 [Tivantinib] + CC(=O)c1c(C)c2cnc(Nc3ccc(N4CCNCC4)cn3)nc2n(C2CCCC2)c1=O [Palbociclib] (partner 0.5 µM)
Outline: as §1

Tivantinib + AZD7762 = compound: O=C1NC(=O)[C@@H](c2cn3c4c(cccc24)CCC3)[C@@H]1c1c[nH]c2ccccc12 [Tivantinib] + NC(=O)Nc1cc(-c2cccc(F)c2)sc1C(=O)N[C@H]1CCCNC1 [AZD7762] (partner 0.2 µM)
Outline: as §1

Tivantinib + Bortezomib = compound: O=C1NC(=O)[C@@H](c2cn3c4c(cccc24)CCC3)[C@@H]1c1c[nH]c2ccccc12 [Tivantinib] + CC(C)C[C@H](NC(=O)[C@H](Cc1ccccc1)NC(=O)c1cnccn1)B(O)O [Bortezomib] (partner 0.002 µM)
Outline: as §1

Row | Cell Line | relative viability (Crenolanib + Alpelisib; first compound 0.01 µM) | relative viability (Crenolanib + Alpelisib; first compound 0.03162 µM) | relative viability (Crenolanib + Alpelisib; first compound 0.1 µM) | relative viability (Crenolanib + Alpelisib; first compound 0.3162 µM) | relative viability (Crenolanib + Alpelisib; first compound 1 µM) | relative viability (Tivantinib + Palbociclib; first compound 0.01 µM) | relative viability (Tivantinib + Palbociclib; first compound 0.03162 µM) | relative viability (Tivantinib + Palbociclib; first compound 0.1 µM) | relative viability (Tivantinib + Palbociclib; first compound 0.3162 µM) | relative viability (Tivantinib + AZD7762; first compound 0.01 µM) | relative viability (Tivantinib + AZD7762; first compound 0.03162 µM) | relative viability (Tivantinib + AZD7762; first compound 0.1 µM) | relative viability (Tivantinib + AZD7762; first compound 0.3162 µM) | relative viability (Tivantinib + Bortezomib; first compound 0.01 µM) | relative viability (Tivantinib + Bortezomib; first compound 0.03162 µM) | relative viability (Tivantinib + Bortezomib; first compound 0.1 µM) | relative viability (Tivantinib + Bortezomib; first compound 0.3162 µM)
1 | NCI-H1793 | 0.684 | 0.964 | 0.712 | 0.76 | 0.717 | 0.334 | 0.237 | 0.325 | 0.241 | 0.355 | 0.645 | 0.412 | 0.378 |  |  |  | 
2 | NCI-H596 | 0.435 | 0.531 | 0.494 | 0.478 | 0.536 |  |  |  |  | 0.994 | 0.975 | 1.09 | 1.38 | 1.19 | 1.09 | 1.78 | 0.936
3 | A549 | 0.808 | 0.795 | 0.743 | 0.798 | 0.747 |  |  |  |  |  |  |  |  |  |  |  | 
4 | NCI-H520 | 0.868 | 0.878 | 0.863 | 0.99 | 0.848 | 0.263 | 0.213 | 0.2 | 0.203 |  |  |  |  | 0.687 | 0.235 | 0.505 | 0.595
5 | NCI-H358 | 0.897 | 1.01 | 0.756 | 0.991 | 0.605 | 0.172 | 0.16 | 0.151 | 0.0952 | 0.443 | 0.576 | 0.497 | 0.279 |  |  |  | 
6 | NCI-H1650 |  |  |  |  |  | 0.325 | 0.322 | 0.426 | 0.254 |  |  |  |  | 0.215 | 0.213 | 0.225 | 0.176
7 | NCI-H1395 | 1.1 | 1.14 | 1.1 | 0.914 | 0.938 | 0.708 | 0.625 | 0.632 | 0.527 | 0.406 | 0.405 | 0.395 | 0.371 |  |  |  | 
8 | NCI-H2228 | 0.842 | 0.863 | 0.712 | 0.867 | 0.748 | 0.895 | 0.794 | 0.652 | 0.602 |  |  |  |  | 0.886 | 0.908 | 1.13 | 0.932
9 | NCI-H1299 | 1.04 | 1.06 | 0.982 | 1.06 | 1.05 |  |  |  |  |  |  |  |  | 1 | 1 | 1.04 | 1.03
10 | NCI-H2023 | 0.627 | 0.655 | 0.594 | 0.725 | 0.635 | 0.447 | 0.376 | 0.334 | 0.327 |  |  |  |  | 1.06 | 0.654 | 0.915 | 0.826
11 | SW 900 |  |  |  |  |  | 0.581 | 0.535 | 0.588 | 0.492 | 0.682 | 0.464 | 0.5 | 0.496 |  |  |  | 
12 | SW 1573 | 0.824 | 0.765 | 0.706 | 0.954 | 0.608 | 0.464 | 0.384 | 0.32 | 0.343 |  |  |  |  | 1.16 | 1.17 | 1.1 | 1.29
13 | IA-LM | 0.786 | 0.819 | 0.75 | 0.898 | 0.854 |  |  |  |  |  |  |  |  | 0.855 | 0.942 | 0.743 | 0.848
14 | NCI-H1648 |  |  |  |  |  |  | 0.235 | 0.21 | 0.267 |  | 0.61 | 0.767 | 0.479 |  |  |  | 
